Assay results from PubChem BioAssay AID248 (DTP/NCI, 2004).
“And” between values parts separate entries of the source, which are not always exact repeats. Equal values may be shown once. Inconclusive results and toxic doses are left out.

Tested on: L1210 leukemia ip in BDF1 mice, survival T/C
Assay: NCI In Vivo Anticancer Drug Screen. Data for tumor model L1210 Leukemia (intraperitoneal) in B6D2F1 (BDF1) mice
Conditions: endpoint: mean survival time, higher = longer survival
Outline: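 In this screen, tumor-bearing mice given compound are compared to those given vehicle, and their survival values are reported as a treated-to-control quotient.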

[1] = dose: 100.0 mg/kg/injection, schedule: Q01DX009 (ip), vehicle: Klucel (hydroxypropylcellulose) (HPC)
[2] = dose: 100.0 mg/kg/injection, schedule: Q04DX003 (ip), vehicle: Klucel (hydroxypropylcellulose) (HPC)
[3] = dose: 200.0 mg/kg/injection, schedule: Q01DX009 (ip), vehicle: Klucel (hydroxypropylcellulose) (HPC)
[4] = dose: 200.0 mg/kg/injection, schedule: Q04DX003 (ip), vehicle: Klucel (hydroxypropylcellulose) (HPC)
[5] = dose: 400.0 mg/kg/injection, schedule: Q04DX003 (ip), vehicle: Klucel (hydroxypropylcellulose) (HPC)
[6] = dose: 100.0 mg/kg/injection, schedule: Q01DX001 (ip), vehicle: carboxymethylcellulose (CMC)
[7] = dose: 200.0 mg/kg/injection, schedule: Q01DX001 (ip), vehicle: carboxymethylcellulose (CMC)
[8] = dose: 400.0 mg/kg/injection, schedule: Q01DX001 (ip), vehicle: carboxymethylcellulose (CMC)
[9] = dose: 37.5 mg/kg/injection, schedule: Q01DX001 (ip), vehicle: Klucel (hydroxypropylcellulose) (HPC)
[10] = dose: 75.0 mg/kg/injection, schedule: Q01DX001 (ip), vehicle: Klucel (hydroxypropylcellulose) (HPC)
[11] = dose: 150.0 mg/kg/injection, schedule: Q01DX001 (ip), vehicle: Klucel (hydroxypropylcellulose) (HPC)
[12] = dose: 100.0 mg/kg/injection, schedule: Q04DX003 (ip), vehicle: saline with Tween-80
[13] = dose: 200.0 mg/kg/injection, schedule: Q04DX003 (ip), vehicle: saline with Tween-80
[14] = dose: 100.0 mg/kg/injection, schedule: Q01DX009 (ip), vehicle: saline with Tween-80
[15] = dose: 200.0 mg/kg/injection, schedule: Q01DX009 (ip), vehicle: saline with Tween-80
[16] = dose: 400.0 mg/kg/injection, schedule: Q01DX009 (ip), vehicle: saline with Tween-80

c1ccc(C2C(c3ccccc3)N2CCCN2CCOCC2)cc1 (stereo unspecified)
T/C (dose: 50.0 mg/kg/injection, schedule: Q01DX009 (ip), vehicle: Klucel (hydroxypropylcellulose) (HPC)): 106 % of control | T/C [1]: 103 % of control | T/C [2]: 88 % of control | T/C [3]: 107 % of control | T/C [4]: 93 % of control

O=C(NCCCCC(NC(=O)OCc1ccccc1)C(=O)NCCCCCCCCCCNC(=O)C(CCCCNC(=O)OCc1ccccc1)NC(=O)OCc1ccccc1)OCc1ccccc1 (stereo unspecified)
T/C (dose: 10.0 mg/kg/injection, schedule: Q01DX012 (ip), vehicle: saline): 94 % of control | T/C (dose: 30.0 mg/kg/injection, schedule: Q01DX012 (ip), vehicle: saline): 96 % of control | T/C (dose: 100.0 mg/kg/injection, schedule: Q01DX012 (ip), vehicle: saline): 94 % of control | T/C (dose: 300.0 mg/kg/injection, schedule: Q01DX012 (ip), vehicle: saline): 88 % of control

Cc1cc(Cl)ccc1NC(=O)OCCOc1ccc([N+](=O)[O-])cc1
T/C (dose: 12.5 mg/kg/injection, schedule: Q01DX009 (ip), vehicle: saline with Tween-80): 107 % of control | T/C (dose: 25.0 mg/kg/injection, schedule: Q01DX009 (ip), vehicle: saline with Tween-80): 91 % of control | T/C (dose: 50.0 mg/kg/injection, schedule: Q01DX009 (ip), vehicle: saline with Tween-80): 110 % of control

CC(C)(C)c1cc(C=C2C(=O)c3ccccc3C2=O)cc(C(C)(C)C)c1O
T/C (dose: 100.0 mg/kg/injection, schedule: Q04DX002 (ip), vehicle: saline with Tween-80): 87 % of control | T/C (dose: 200.0 mg/kg/injection, schedule: Q04DX002 (ip), vehicle: saline with Tween-80): 90 % of control | T/C (dose: 400.0 mg/kg/injection, schedule: Q04DX002 (ip), vehicle: saline with Tween-80): 93 % of control

Cc1ccc(C(C)C)c2sc(=N)oc12
T/C [2]: 104 % of control | T/C [4]: 103 % of control | T/C [5]: 98 % of control

CCCCCCCCCCNCCCCNCCCCCCCCCC
T/C (dose: 1.56 mg/kg/injection, schedule: Q01DX009 (ip), vehicle: Klucel (hydroxypropylcellulose) (HPC)): 92 % of control | T/C (dose: 3.12 mg/kg/injection, schedule: Q01DX009 (ip), vehicle: Klucel (hydroxypropylcellulose) (HPC)): 87 % of control | T/C (dose: 6.25 mg/kg/injection, schedule: Q01DX009 (ip), vehicle: Klucel (hydroxypropylcellulose) (HPC)): 92 % of control and 93 % of control

Fc1ccc2[nH]c3c(c2c1)CP(c1ccccc1)CC3 (stereo unspecified)
T/C [2]: 100 % of control | T/C [4]: 96 % of control | T/C [5]: 105 % of control

CN(Cc1cnc2nc(N)nc(N)c2n1)c1ccc(C(=O)NC(CCC(=O)O)C(=O)O)c(Cl)c1Cl (stereo unspecified)
T/C (dose: 12.5 mg/kg/injection, schedule: Q01DX009 (ip), vehicle: sodium bicarbonate): 157 % of control | T/C (dose: 25.0 mg/kg/injection, schedule: Q01DX009 (ip), vehicle: sodium bicarbonate): 157 % of control | T/C (dose: 50.0 mg/kg/injection, schedule: Q01DX009 (ip), vehicle: sodium bicarbonate): 155 % of control

CCOC(=O)c1cccc2cccc(C(=O)OCC)c12
T/C (dose: 50.0 mg/kg/injection, schedule: Q01DX001 (ip), vehicle: carboxymethylcellulose (CMC)): 97 % of control | T/C [6]: 101 % of control | T/C [7]: 101 % of control | T/C [8]: 97 % of control

COc1ccccc1-n1c(=O)c(N=Nc2ccccc2C)c(O)n(-c2ccccc2C)c1=S
T/C [9]: 106 % of control | T/C [10]: 106 % of control | T/C [11]: 108 % of control

N=C(N)CNC(=O)c1ccccc1C(=O)O
T/C (dose: 19.0 mg/kg/injection, schedule: Q01DX009 (ip), vehicle: saline): 100 % of control | T/C (dose: 38.0 mg/kg/injection, schedule: Q01DX009 (ip), vehicle: saline): 92 % of control | T/C (dose: 75.0 mg/kg/injection, schedule: Q01DX001 (ip), vehicle: saline): 103 % of control | T/C (dose: 75.0 mg/kg/injection, schedule: Q01DX009 (ip), vehicle: saline): 96 % of control | T/C (dose: 150.0 mg/kg/injection, schedule: Q01DX001 (ip), vehicle: saline): 107 % of control | T/C (dose: 150.0 mg/kg/injection, schedule: Q01DX009 (ip), vehicle: saline): 100 % of control | T/C (dose: 300.0 mg/kg/injection, schedule: Q01DX001 (ip), vehicle: saline): 92 % of control

O/N=C1\CCc2ccccc2C(O)C1c1ccccc1 (stereo unspecified)
T/C [12]: 97 % of control | T/C [13]: 102 % of control | T/C (dose: 400.0 mg/kg/injection, schedule: Q04DX003 (ip), vehicle: saline with Tween-80): 88 % of control

CCCOS(C)(=O)=O
T/C (dose: 100.0 mg/kg/injection, schedule: Q01DX001 (ip), vehicle: saline): 100 % of control | T/C (dose: 200.0 mg/kg/injection, schedule: Q01DX001 (ip), vehicle: saline): 100 % of control | T/C (dose: 400.0 mg/kg/injection, schedule: Q01DX001 (ip), vehicle: saline): 100 % of control

CN(C)CCN1C(=O)c2ccc3c4c(ccc(c24)C1=O)C(=O)N(CCN(C)C)C3=O
T/C (dose: 50.0 mg/kg/injection, schedule: Q01DX001 (ip), vehicle: Klucel (hydroxypropylcellulose) (HPC)): 96 % of control | T/C (dose: 100.0 mg/kg/injection, schedule: Q01DX001 (ip), vehicle: Klucel (hydroxypropylcellulose) (HPC)): 94 % of control | T/C (dose: 200.0 mg/kg/injection, schedule: Q01DX001 (ip), vehicle: Klucel (hydroxypropylcellulose) (HPC)): 89 % of control

OC12CC(C(F)(F)F)(C(F)(F)F)OC1(O)CC(C(F)(F)F)(C(F)(F)F)O2 (stereo unspecified)
T/C [12]: 94 % of control | T/C [13]: 89 % of control

COc1c(NC(=O)c2ccc(Cl)c(Cl)c2)cccc1[N+](=O)[O-]
T/C [14]: 89 % of control | T/C [15]: 89 % of control | T/C [16]: 89 % of control

Cc1ccc(S(=O)(=O)NC(N)=NCCCC(NC(=O)OC(C)(C)C)C(=O)O)cc1 (stereo unspecified)
T/C [14]: 89 % of control | T/C [15]: 86 % of control | T/C [16]: 86 % of control

O=C(NC1CCCCC1)Oc1ccc(-c2ccccc2)cc1Cl
T/C [1]: 101 % of control | T/C [2]: 111 % of control | T/C [3]: 107 % of control | T/C [4]: 104 % of control | T/C (dose: 400.0 mg/kg/injection, schedule: Q01DX009 (ip), vehicle: Klucel (hydroxypropylcellulose) (HPC)): 98 % of control | T/C [5]: 98 % of control

O=[N+]([O-])c1cc(N(c2ccccc2)c2ccccc2)cc([N+](=O)[O-])c1
T/C [6]: 103 % of control | T/C [7]: 108 % of control | T/C [8]: 103 % of control

O=C1NC(=O)C(CCI)(CCI)C(=O)N1
T/C [6]: 103 % of control | T/C [7]: 98 % of control | T/C [8]: 109 % of control

CC(C)(C)OC(=O)c1cc([N+](=O)[O-])cc([N+](=O)[O-])c1
T/C (dose: 100.0 mg/kg/injection, schedule: Q04DX002 (ip), vehicle: Klucel (hydroxypropylcellulose) (HPC)): 104 % of control | T/C (dose: 200.0 mg/kg/injection, schedule: Q04DX002 (ip), vehicle: Klucel (hydroxypropylcellulose) (HPC)): 104 % of control | T/C (dose: 400.0 mg/kg/injection, schedule: Q04DX002 (ip), vehicle: Klucel (hydroxypropylcellulose) (HPC)): 107 % of control

OC(c1ccccc1)(c1ccccc1)c1ccccc1Cl
T/C (dose: 100.0 mg/kg/injection, schedule: Q04DX003 (ip), vehicle: saline): 94 % of control | T/C (dose: 200.0 mg/kg/injection, schedule: Q04DX003 (ip), vehicle: saline): 91 % of control | T/C (dose: 400.0 mg/kg/injection, schedule: Q04DX003 (ip), vehicle: saline): 91 % of control

CC(C)C(CN)(CCCN1CCOCC1)c1cccc2ccccc12 (stereo unspecified)
T/C [14]: 94 % of control | T/C [15]: 89 % of control

Cc1ccc(-n2c(O)c(N=Nc3ccc(Cl)cc3)c(=O)n(-c3ccc(C)cc3)c2=S)cc1
T/C [9]: 97 % of control | T/C [10]: 107 % of control | T/C [11]: 96 % of control

CCOC(=O)CNC(=O)C(CSCc1cccs1)NC(=O)OCc1ccccc1 (stereo unspecified)
T/C [14]: 100 % of control | T/C [15]: 94 % of control | T/C [16]: 90 % of control

N#CCCNC(CO)C(=O)O (stereo unspecified)
T/C [6]: 94 % of control | T/C [7]: 92 % of control | T/C [8]: 89 % of control

Nc1ccc(-c2nc3nc(N)nc(N)c3nc2-c2ccc(N)cc2)cc1
T/C (dose: 30.0 mg/kg/injection, schedule: Q01DX Z (ip), vehicle: carboxymethylcellulose (CMC)): 102 % of control | T/C (dose: 60.0 mg/kg/injection, schedule: Q01DX Z (ip), vehicle: carboxymethylcellulose (CMC)): 95 % of control | T/C (dose: 120.0 mg/kg/injection, schedule: Q01DX Z (ip), vehicle: carboxymethylcellulose (CMC)): 104 % of control | T/C (dose: 240.0 mg/kg/injection, schedule: Q01DX Z (ip), vehicle: carboxymethylcellulose (CMC)): 101 % of control
